# Reference: patent US8044079B2, “Substituted oxindole derivatives, medicaments containing said derivatives and use thereof” (Abbott GmbH & Co. KG, priority 2005, dated 2011)
# Target: T1, human vasopressin V1b receptor (Homo sapiens, UniProt P47901)
# T1 construct: expressed in transfected cells; host or cells: CHO-K1 (cell line hV1b_3H2_CHO), membrane preparation
# T1 sequence (P47901 1-424): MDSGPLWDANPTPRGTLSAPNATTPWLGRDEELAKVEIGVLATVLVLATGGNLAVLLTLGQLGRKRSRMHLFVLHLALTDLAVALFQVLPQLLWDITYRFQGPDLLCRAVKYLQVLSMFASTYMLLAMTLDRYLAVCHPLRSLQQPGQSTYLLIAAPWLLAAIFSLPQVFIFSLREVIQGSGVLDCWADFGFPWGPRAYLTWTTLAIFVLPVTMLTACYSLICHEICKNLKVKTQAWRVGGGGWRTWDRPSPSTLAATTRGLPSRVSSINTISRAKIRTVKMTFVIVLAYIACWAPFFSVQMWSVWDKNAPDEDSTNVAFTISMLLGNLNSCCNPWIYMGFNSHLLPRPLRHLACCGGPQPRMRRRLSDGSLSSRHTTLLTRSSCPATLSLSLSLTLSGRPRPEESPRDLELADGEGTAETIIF
# Assay: Vasopressin V1b receptor binding test
# Details: membranes of CHO-K1 cells with human V1b receptor, displacement of 1.5 nM 3H-AVP; for compounds with more than one stereogenic center the diastereomer with greater affinity
# Summary of the method: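 Radioligand displacement on membranes carrying human V1b receptor in 50 mM tris, 10 mM MgCl2, 0.1% BSA, pH 7.4, 2% DMSO final; 60 min at room temperature, nonspecific binding with 1 μM AVP. Free ligand removed by filtration, bound counted by liquid scintillation, Ki from nonlinear regression of triplicates.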
row,Ki [nM],Structure (SMILES)
1,< 10,"COc1ccc(S(=O)(=O)N2C(=O)C(c3cc(CN4CCNC(=O)C4)ccc3OC)(N3CCC[C@H]3c3ncco3)c3cc(C#N)ccc32)cc1 (stereo partly drawn) [Example 143, 5-Cyano-1-(4-methoxy-benzenesulfonyl)-3-[2-methoxy-5-(3-oxo-piperazin-1-ylmethyl)phenyl]-3-((S)-2-oxazol-2-yl-pyrrolidin-1-yl)-1,3-dihydroindol-2-one]"
2,< 10,"COc1ccc(S(=O)(=O)N2C(=O)C(c3cc(CN4CCCN(C)CC4)ccc3OC)(N3CCC[C@H]3c3ncco3)c3cc(C#N)ccc32)cc1 (stereo partly drawn) [Example 144, 5-Cyano-1-(4-methoxybenzenesulfonyl)-3-[2-methoxy-5-(4-methyl-[1,4]diazepan-1-ylmethyl)phenyl]-3-((S)-2-oxazol-2-yl-pyrrolidin-1-yl)-1,3-dihydroindol-2-one]"
3,10 to 100,"COc1ccc(CN2CCN(C)CC2)cc1C1(N2CCC[C@H]2c2ncco2)C(=O)N(S(=O)(=O)c2ccc(OC(F)F)cc2)c2ccc(Cl)cc21 (stereo partly drawn) [Example 145, 5-Chloro-1-(4-difluoromethoxybenzenesulfonyl)-3-[2-methoxy-5-(4-methylpiperazin-1-ylmethyl)phenyl]-3-((S)-2-oxazol-2-yl-pyrrolidin-1-yl)-1,3-dihydroindol-2-one]"
4,10 to 100,"COc1ccc(S(=O)(=O)N2C(=O)C(c3ccc(CN4CCOCC4)cc3OC)(N3CCC[C@H]3c3ncco3)c3cc(Cl)ccc32)cc1 (stereo partly drawn) [Example 146, 5-Chloro-1-(4-methoxybenzenesulfonyl)-3-(2-methoxy-4-(morpholin-4-ylmethyl)phenyl)-3-((S)-2-oxazol-2-yl-pyrrolidin-1-yl)-1,3-dihydroindol-2-one]"
5,< 10,"COc1ccc(S(=O)(=O)N2C(=O)C(c3ccc(CN4CCN(CCO)CC4)cc3OC)(N3CCC[C@H]3c3ncco3)c3cc(C#N)ccc32)cc1 (stereo partly drawn) [Example 147, 5-Cyano-3-{4-[4-(2-hydroxyethyl)piperazin-1-ylmethyl]-2-methoxyphenyl}-1-(4-methoxybenzenesulfonyl)-3-((S)-2-oxazol-2-yl-pyrrolidin-1-yl)-1,3-dihydroindol-2-one]"
6,< 10,"CCN1CCN(Cc2ccc(C3(N4CCC[C@H]4c4ncco4)C(=O)N(S(=O)(=O)c4ccc(OC)cc4)c4ccc(C#N)cc43)c(OC)c2)CC1 (stereo partly drawn) [Example 148, 5-Cyano-3-[4-(4-ethylpiperazin-1-ylmethyl)-2-methoxyphenyl]-1-(4-methoxybenzenesulfonyl)-3-((S)-2-oxazol-2-yl-pyrrolidin-1-yl)-1,3-dihydroindol-2-one]"
7,< 10,"COc1ccc(S(=O)(=O)N2C(=O)C(c3cc(CN(C)C)ccc3OC)(N3C[C@H](O)C[C@H]3c3ncco3)c3cc(C#N)ccc32)cc1 (stereo partly drawn) [Example 150, 5-Cyano-3-(5-dimethylaminomethyl-2-methoxyphenyl)-3-((2S,4R)-4-hydroxy-2-oxazol-2-yl-pyrrolidin-1-yl)-1-(4-methoxybenzenesulfonyl)-1,3-dihydroindol-2-one]"
8,< 10,"CCNCc1ccc(OC)c(C2(N3C[C@H](O)C[C@H]3c3ncco3)C(=O)N(S(=O)(=O)c3ccc(OC)cc3)c3ccc(C#N)cc32)c1 (stereo partly drawn) [Example 151, 5-Cyano-3-(5-ethylaminomethyl-2-methoxyphenyl)-3-((2S,4R)-4-hydroxy-2-oxazol-2-yl-pyrrolidin-1-yl)-1-(4-methoxybenzenesulfonyl)-1,3-dihydroindol-2-one]"
9,< 10,"CCN1CCN(Cc2ccc(C3(N4CCC[C@H]4c4ncco4)C(=O)N(S(=O)(=O)c4ccc(C#N)cc4)c4ccc(Cl)cc43)c(OC)c2)CC1 (stereo partly drawn) [Example 152, 5-Chloro-3-[4-(4-ethylpiperazin-1-ylmethyl)-2-methoxyphenyl]-3-((S)-2-oxazol-2-yl-pyrrolidin-1-yl)-1-(4-cyanobenzenesulfonyl)-1,3-dihydroindol-2-one]"
10,< 10,"COc1ccc(S(=O)(=O)N2C(=O)C(c3ccc(CN4CCNCC4)cc3OC)(N3CCC[C@H]3c3ncco3)c3cc(C#N)ccc32)cc1 (stereo partly drawn) [Example 153, 5-Cyano-1-(4-methoxybenzenesulfonyl)-3-(2-methoxy-4-piperazin-1-ylmethylphenyl)-3-((S)-2-oxazol-2-yl-pyrrolidin-1-yl)-1,3-dihydroindol-2-one]"
